Measurements taken from ChEMBL document CHEMBL4507276 (2021).

Assays:
[1] = biological target: Serine/threonine-protein kinase pim-1 (Homo sapiens) (UniProt P11309); settings: Compound concentration 1000.0 nM
[2] = tested on: Phosphatidylinositol 4,5-bisphosphate 3-kinase catalytic subunit alpha isoform (Homo sapiens), P42336 [E542K]; settings: Compound concentration 1000.0 nM
[3] = biological target: Serine/threonine-protein kinase Nek3 (Homo sapiens) (UniProt P51956); settings: Compound concentration 1000.0 nM
[4] = tested on: Tyrosine-protein kinase ABL1 (Homo sapiens), P00519 [H396P]; settings: Compound concentration 1000.0 nM
[5] = biological target: Mitogen-activated protein kinase kinase kinase 4 (Homo sapiens) (UniProt Q9Y6R4); settings: Compound concentration 1000.0 nM
[6] = biological target: Cyclin-dependent kinase 13 (Homo sapiens) (UniProt Q14004); settings: Compound concentration 1000.0 nM
[7] = biological target: Tyrosine-protein kinase Blk (Homo sapiens) (UniProt P51451); settings: Compound concentration 1000.0 nM
Sequence of Tyrosine-protein kinase Blk (Homo sapiens) (P51451 2-505 limits assumed): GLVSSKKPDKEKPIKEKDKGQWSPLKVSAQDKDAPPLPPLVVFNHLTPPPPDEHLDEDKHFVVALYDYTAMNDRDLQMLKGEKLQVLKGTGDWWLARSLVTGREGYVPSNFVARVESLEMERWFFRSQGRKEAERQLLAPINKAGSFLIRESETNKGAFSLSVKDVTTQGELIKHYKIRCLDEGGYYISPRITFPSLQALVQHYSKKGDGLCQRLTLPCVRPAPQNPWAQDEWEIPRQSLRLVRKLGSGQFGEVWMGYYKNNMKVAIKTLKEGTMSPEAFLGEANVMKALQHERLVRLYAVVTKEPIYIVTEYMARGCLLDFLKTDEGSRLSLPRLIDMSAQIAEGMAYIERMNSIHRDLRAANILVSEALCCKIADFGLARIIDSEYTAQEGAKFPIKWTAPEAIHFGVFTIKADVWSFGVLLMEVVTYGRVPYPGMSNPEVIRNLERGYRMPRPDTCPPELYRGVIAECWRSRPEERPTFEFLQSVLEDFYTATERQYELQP

[8] = biological target: Phosphatidylinositol 5-phosphate 4-kinase type-2 gamma (Homo sapiens) (UniProt Q8TBX8); settings: Compound concentration 1000.0 nM
Sequence of Phosphatidylinositol 5-phosphate 4-kinase type-2 gamma (Homo sapiens) (Q8TBX8 whole entry): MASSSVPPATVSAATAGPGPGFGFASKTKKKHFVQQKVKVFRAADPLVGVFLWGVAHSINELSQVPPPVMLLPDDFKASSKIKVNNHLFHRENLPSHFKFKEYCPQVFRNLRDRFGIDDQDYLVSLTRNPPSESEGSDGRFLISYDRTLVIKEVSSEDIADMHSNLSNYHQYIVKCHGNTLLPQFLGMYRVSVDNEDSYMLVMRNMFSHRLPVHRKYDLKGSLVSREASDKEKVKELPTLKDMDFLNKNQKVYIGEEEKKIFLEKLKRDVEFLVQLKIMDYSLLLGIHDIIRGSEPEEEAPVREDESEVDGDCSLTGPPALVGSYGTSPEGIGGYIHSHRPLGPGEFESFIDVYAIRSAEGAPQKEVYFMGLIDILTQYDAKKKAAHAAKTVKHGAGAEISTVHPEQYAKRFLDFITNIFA

[9] = biological target: 5-hydroxytryptamine receptor 5A (Homo sapiens) (UniProt P47898); settings: Compound concentration 10.0 uM
Sequence of 5-hydroxytryptamine receptor 5A (Homo sapiens) (P47898 whole entry): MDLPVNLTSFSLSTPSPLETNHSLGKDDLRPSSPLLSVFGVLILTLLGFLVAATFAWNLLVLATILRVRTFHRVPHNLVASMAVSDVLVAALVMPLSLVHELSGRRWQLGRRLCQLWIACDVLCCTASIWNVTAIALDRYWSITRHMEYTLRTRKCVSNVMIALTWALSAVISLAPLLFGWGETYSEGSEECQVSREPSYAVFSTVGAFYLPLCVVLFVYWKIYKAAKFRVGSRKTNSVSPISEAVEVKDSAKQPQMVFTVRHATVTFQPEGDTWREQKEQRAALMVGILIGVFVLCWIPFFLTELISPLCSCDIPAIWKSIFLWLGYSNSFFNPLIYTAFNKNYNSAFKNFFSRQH

[10] = biological target: NUAK family SNF1-like kinase 2 (Homo sapiens) (UniProt Q9H093); settings: Compound concentration 1000.0 nM
[11] = biological target: Myosin-IIIa (Homo sapiens) (UniProt Q8NEV4); settings: Compound concentration 1000.0 nM
Sequence of Myosin-IIIa (Homo sapiens) (Q8NEV4 whole entry): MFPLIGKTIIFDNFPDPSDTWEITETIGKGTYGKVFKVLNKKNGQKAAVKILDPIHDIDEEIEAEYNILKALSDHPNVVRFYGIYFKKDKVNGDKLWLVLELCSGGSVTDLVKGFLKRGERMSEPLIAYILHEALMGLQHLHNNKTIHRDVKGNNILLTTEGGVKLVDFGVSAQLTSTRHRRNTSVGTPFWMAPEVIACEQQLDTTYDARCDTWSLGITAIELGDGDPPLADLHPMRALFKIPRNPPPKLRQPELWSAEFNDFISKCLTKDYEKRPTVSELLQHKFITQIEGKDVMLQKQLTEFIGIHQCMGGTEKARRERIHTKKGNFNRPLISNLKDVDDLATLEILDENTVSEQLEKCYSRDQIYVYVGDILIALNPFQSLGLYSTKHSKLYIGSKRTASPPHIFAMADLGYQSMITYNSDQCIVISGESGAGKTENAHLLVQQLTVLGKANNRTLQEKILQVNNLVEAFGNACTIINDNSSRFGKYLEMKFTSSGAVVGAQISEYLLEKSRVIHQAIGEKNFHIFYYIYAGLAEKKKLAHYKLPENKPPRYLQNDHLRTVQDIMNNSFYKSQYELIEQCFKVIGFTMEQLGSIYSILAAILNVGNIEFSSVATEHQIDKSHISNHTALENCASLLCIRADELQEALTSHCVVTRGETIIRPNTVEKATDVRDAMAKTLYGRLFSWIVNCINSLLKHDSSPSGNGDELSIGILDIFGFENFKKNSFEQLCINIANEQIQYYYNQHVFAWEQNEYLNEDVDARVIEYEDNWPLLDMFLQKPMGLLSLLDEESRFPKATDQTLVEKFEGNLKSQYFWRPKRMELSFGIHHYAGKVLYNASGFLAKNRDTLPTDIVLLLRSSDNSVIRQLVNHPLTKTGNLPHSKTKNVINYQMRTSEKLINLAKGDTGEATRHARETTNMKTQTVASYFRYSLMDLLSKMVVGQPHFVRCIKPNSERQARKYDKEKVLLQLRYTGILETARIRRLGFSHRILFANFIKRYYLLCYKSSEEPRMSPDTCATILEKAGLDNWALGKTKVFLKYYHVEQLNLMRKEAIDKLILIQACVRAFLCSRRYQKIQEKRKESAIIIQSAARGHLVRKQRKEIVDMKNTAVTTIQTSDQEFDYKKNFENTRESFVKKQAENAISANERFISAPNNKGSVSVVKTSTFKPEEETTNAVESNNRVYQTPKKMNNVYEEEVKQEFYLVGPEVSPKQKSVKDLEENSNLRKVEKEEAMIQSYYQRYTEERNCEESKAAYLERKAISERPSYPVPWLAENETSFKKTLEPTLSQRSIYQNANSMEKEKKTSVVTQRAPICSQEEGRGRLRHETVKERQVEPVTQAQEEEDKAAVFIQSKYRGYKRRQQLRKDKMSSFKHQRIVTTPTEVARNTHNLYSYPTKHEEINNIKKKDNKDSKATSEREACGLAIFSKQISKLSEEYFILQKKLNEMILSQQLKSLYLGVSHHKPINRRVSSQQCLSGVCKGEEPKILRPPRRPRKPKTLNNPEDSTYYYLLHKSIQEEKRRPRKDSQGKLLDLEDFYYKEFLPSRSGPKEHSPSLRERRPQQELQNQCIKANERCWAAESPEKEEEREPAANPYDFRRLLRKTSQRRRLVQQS

[12] = biological target: Mitogen-activated protein kinase 6 (Homo sapiens) (UniProt Q16659); settings: Compound concentration 1000.0 nM
[13] = biological target: Focal adhesion kinase 1 (Homo sapiens) (UniProt Q05397); settings: Compound concentration 1000.0 nM
[14] = biological target: T1, G protein-coupled receptor kinase 3 (Homo sapiens) (UniProt P35626); settings: Compound concentration 1000.0 nM
T1 sequence (whole entry): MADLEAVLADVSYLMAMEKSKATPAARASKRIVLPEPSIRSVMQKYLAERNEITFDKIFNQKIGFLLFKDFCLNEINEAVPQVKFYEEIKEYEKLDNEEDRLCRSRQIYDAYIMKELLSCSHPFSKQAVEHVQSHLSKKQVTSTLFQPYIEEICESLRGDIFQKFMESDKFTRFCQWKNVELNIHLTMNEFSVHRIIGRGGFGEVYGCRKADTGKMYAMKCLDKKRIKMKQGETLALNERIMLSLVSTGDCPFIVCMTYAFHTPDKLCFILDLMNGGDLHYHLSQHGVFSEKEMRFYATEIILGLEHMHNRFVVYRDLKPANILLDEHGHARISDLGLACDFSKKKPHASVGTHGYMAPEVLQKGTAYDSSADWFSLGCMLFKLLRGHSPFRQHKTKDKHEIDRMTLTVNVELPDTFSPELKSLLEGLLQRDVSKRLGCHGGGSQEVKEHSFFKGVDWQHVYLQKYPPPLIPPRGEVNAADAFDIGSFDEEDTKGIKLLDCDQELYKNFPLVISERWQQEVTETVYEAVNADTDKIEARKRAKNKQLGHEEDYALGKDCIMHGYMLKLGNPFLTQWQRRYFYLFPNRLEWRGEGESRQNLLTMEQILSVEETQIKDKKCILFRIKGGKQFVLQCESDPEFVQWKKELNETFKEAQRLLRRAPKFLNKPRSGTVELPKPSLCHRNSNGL

[15] = biological target: Calcium/calmodulin-dependent protein kinase type 1G (Homo sapiens) (UniProt Q96NX5); settings: Compound concentration 1000.0 nM
Sequence of Calcium/calmodulin-dependent protein kinase type 1G (Homo sapiens) (Q96NX5 whole entry): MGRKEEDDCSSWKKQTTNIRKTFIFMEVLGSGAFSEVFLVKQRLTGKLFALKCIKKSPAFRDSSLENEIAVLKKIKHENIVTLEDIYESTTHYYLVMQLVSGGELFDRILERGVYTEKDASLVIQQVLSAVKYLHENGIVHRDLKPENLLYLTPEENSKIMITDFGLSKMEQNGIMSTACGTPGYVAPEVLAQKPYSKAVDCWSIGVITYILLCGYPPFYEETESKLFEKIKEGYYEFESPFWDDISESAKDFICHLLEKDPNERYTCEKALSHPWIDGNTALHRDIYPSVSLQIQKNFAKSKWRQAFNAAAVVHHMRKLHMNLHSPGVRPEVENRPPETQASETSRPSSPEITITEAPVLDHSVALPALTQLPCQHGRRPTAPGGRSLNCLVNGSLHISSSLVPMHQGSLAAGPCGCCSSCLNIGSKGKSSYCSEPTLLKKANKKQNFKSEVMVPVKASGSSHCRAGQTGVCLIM

[16] = biological target: Leucine-rich repeat serine/threonine-protein kinase 2 (Homo sapiens) (UniProt Q5S007); settings: Compound concentration 1000.0 nM
[17] = biological target: Macrophage-stimulating protein receptor (Homo sapiens) (UniProt Q04912); settings: Compound concentration 1000.0 nM
Sequence of Macrophage-stimulating protein receptor (Homo sapiens) (Q04912 25-304 limits assumed): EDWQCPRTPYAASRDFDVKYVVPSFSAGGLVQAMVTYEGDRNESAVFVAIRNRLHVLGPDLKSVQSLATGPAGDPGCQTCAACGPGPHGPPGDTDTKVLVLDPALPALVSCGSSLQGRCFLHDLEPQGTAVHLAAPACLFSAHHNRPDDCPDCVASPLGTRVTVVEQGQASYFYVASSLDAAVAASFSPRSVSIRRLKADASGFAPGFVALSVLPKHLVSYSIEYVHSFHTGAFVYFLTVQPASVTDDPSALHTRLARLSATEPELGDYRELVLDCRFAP
Sequence of Macrophage-stimulating protein receptor (Homo sapiens) (Q04912 310-1400 limits assumed): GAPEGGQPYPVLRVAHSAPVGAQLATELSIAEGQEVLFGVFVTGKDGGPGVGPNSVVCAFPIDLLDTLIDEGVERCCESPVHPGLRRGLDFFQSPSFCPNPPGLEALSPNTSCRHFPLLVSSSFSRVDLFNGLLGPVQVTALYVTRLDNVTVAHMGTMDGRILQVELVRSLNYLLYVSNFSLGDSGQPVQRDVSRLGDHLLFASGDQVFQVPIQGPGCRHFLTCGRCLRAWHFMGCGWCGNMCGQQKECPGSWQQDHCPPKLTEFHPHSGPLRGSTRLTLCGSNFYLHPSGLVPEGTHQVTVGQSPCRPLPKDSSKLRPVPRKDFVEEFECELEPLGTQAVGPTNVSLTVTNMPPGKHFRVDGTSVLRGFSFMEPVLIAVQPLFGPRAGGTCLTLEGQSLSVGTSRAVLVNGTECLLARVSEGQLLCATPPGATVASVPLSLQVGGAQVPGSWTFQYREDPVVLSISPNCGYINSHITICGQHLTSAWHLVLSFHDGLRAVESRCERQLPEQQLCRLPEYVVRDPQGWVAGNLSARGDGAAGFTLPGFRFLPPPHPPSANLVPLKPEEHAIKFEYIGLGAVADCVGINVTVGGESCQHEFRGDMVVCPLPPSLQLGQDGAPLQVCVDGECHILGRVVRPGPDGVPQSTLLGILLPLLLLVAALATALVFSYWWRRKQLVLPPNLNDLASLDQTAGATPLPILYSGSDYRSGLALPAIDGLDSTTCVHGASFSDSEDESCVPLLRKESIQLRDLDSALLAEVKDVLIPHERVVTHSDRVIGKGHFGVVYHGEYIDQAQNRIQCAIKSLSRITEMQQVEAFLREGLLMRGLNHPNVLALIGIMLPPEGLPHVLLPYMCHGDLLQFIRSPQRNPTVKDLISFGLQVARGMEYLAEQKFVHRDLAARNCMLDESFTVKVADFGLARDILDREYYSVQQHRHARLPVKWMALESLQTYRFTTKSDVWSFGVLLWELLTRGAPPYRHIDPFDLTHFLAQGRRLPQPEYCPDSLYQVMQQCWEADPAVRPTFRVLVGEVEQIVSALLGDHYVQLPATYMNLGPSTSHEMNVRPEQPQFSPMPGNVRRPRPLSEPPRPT

[18] = biological target: T2, Serine/threonine-protein kinase BRSK1 (Homo sapiens) (UniProt Q8TDC3); settings: Compound concentration 1000.0 nM
T2 sequence (whole entry): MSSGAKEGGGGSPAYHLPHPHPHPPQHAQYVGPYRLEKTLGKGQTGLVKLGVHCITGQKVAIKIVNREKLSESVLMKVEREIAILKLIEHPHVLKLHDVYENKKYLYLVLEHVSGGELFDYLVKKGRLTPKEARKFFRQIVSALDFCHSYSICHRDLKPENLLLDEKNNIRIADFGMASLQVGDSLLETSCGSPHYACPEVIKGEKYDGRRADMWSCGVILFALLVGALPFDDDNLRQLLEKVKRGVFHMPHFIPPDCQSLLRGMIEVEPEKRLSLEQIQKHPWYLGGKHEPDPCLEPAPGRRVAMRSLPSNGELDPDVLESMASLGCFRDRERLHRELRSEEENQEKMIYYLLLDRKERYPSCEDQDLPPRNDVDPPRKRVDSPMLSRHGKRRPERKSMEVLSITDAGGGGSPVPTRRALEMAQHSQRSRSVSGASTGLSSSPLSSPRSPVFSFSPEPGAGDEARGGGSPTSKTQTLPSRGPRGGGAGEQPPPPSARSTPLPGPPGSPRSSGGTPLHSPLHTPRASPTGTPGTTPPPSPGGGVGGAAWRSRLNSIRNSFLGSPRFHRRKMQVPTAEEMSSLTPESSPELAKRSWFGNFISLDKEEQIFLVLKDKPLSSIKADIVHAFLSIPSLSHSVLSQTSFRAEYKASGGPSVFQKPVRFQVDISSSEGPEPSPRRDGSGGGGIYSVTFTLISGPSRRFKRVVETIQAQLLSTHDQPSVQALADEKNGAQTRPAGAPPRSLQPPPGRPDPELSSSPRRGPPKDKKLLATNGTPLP

[19] = biological target: Testis-specific serine/threonine-protein kinase 1 (Homo sapiens) (UniProt Q9BXA7); settings: Compound concentration 1000.0 nM
[20] = tested on: Epidermal growth factor receptor (Homo sapiens), P00533 [UNDEFINED MUTATION]; settings: Compound concentration 1000.0 nM

CN(C)C(=O)Cn1cc(-c2nc(C3(c4ccc(-c5cnc(N)nc5)cc4)CC3)no2)cn1 [BI 0153]
inactive: residual activity [1] 100% | residual activity [2] 76% | residual activity [3] 57% | residual activity [4] 100% | residual activity [5] 92% | residual activity [6] 91% | residual activity [7] 83% | residual activity [8] 100% | inhibition [9] 0.23% | residual activity [10] 87% | residual activity [11] 100% | residual activity [12] 91% | residual activity [13] 100% | residual activity [14] 69% | residual activity [15] 100% | residual activity [16] 100% | residual activity [17] 95% | residual activity [18] 93% | residual activity [19] 100% | residual activity [20] 80%

CN(C)C(=O)Cn1cc(-c2nc([C@@](C)(c3ccc(-c4cnc(N)nc4)cc3)C3CC3)no2)cn1 [BI 665915]
inactive: residual activity [1] 100% | residual activity [2] 79% | residual activity [3] 87% | residual activity [4] 80% | residual activity [5] 91% | residual activity [6] 83% | residual activity [7] 98% | residual activity [8] 100% | inhibition [9] -4.97% | residual activity [10] 83% | residual activity [11] 100% | residual activity [12] 91% | residual activity [13] 100% | residual activity [14] 86% | residual activity [15] 100% | residual activity [16] 74% | residual activity [17] 79% | residual activity [18] 98% | residual activity [19] 100% | residual activity [20] 100%
